Source: patent US10167262B2, “Herbicidal substituted 3-arylpyrazoles” (FMC CORPORATION, priority 2014, dated 2019)

Columns and labels:
Assay type in all cases: in vivo
[1] = test system: barnyardgrass (Echinochloa crus-galli); experiment: Test A pre-/postemergence greenhouse herbicide test, visual injury rating 0-100
Summary of the method: (§1)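 Visual injury versus untreated controls, scored about 10 days after treatment on a 0 to 100 scale (0 = no effect, 100 = complete control). Applications were preemergence directed soil spray plus postemergence spray at one- to two-leaf stage, 2 to 10 cm plants.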

corn (Zea mays) = experiment: as above
Summary of the method: as §1

[2] = test system: giant foxtail (Setaria faberii); experiment: as above
Summary of the method: as §1

[3] = test system: large (Lg) crabgrass (Digitaria sanguinalis); experiment: as above
Summary of the method: as §1

[4] = test system: morningglory (Ipomoea spp.); experiment: as above
Summary of the method: as §1

[5] = test system: pigweed (Amaranthus retroflexus); experiment: as above
Summary of the method: as §1

[6] = test system: velvetleaf (Abutilon theophrasti); experiment: as above
Summary of the method: as §1

[7] = test system: wheat (Triticum aestivum); experiment: as above
Summary of the method: as §1

[8] = test system: Italian ryegrass (Lolium multiflorum); experiment: Test C pre-/postemergence greenhouse test, plant response rating 0-100
Summary of the method: (§2)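 Pre-emergence soil and post-emergence foliar sprays were applied simultaneously to seeded loam–sand pots and to 1–4-leaf plants in peat medium; greenhouse holding lasted 13–15 days, then plants were scored visually from 0 (no effect) to 100 (complete control).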

[9] = test system: giant foxtail (Setaria faberii); experiment: as above
Summary of the method: as §2

soybean (Glycine max) = experiment: as above
Summary of the method: as §2

[10] = test system: chickweed (common chickweed, Stellaria media); experiment: Test C postemergence greenhouse test, plant response rating 0-100; conditions: for Plant response rating, Chickweed: scale 0 to 100
Summary of the method: (§3)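 Postemergence spray onto 1–4-leaf potted seedlings, greenhouse incubation 13–15 days. Visual percent-control rating (0–100) against untreated plants.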

kochia (Kochia scoparia) = experiment: as above; conditions: for Plant response rating, Kochia: scale 0 to 100
Summary of the method: as §3

wild oat (Avena fatua) = experiment: as above; conditions: for Plant response rating, Oat, Wild: scale 0 to 100
Summary of the method: as §3

[11] = Postemergence, 250 g ai/ha, scale 0 to 100
[12] = Postemergence, 500 g ai/ha, scale 0 to 100

## O=Cn1cc(C(=O)c2ccccc2)c(-c2cc(Cl)cc(Cl)c2)n1 [Compound 28]
[1]; Postemergence, 125 g ai/ha
  Plant response rating (0 to 100 scale), Barnyardgrass: 0
[1]; Postemergence, 500 g ai/ha
  Plant response rating (0 to 100 scale), Barnyardgrass: 0
[1]; Preemergence, 125 g ai/ha
  Barnyardgrass plant response rating (0 = no effect, 100 = complete control): 0
[1]; Preemergence, 500 g ai/ha
  Plant response rating (0 to 100 scale), Barnyardgrass: 0
Corn (Zea mays); Postemergence, 125 g ai/ha
  Plant response rating (0 to 100 scale), Corn: 0
Corn (Zea mays); Postemergence, 500 g ai/ha
  Plant response rating (0 to 100 scale), Corn: 0
Corn (Zea mays); Preemergence, 125 g ai/ha
  Corn plant response rating (0 = no effect, 100 = complete control): 0
Corn (Zea mays); Preemergence, 500 g ai/ha
  Plant response rating (0 to 100 scale), Corn: 0
[2]; Postemergence, 125 g ai/ha
  Plant response rating (0 to 100 scale), Foxtail, Giant: 0
[2]; Postemergence, 500 g ai/ha
  Plant response rating (0 to 100 scale), Foxtail, Giant: 0
[2]; Preemergence, 125 g ai/ha
  Foxtail, Giant plant response rating (0 = no effect, 100 = complete control): 0
[2]; Preemergence, 500 g ai/ha
  Plant response rating (0 to 100 scale), Foxtail, Giant: 0
[3]; Postemergence, 125 g ai/ha
  Plant response rating (0 to 100 scale), Crabgrass, Large: 0
[3]; Postemergence, 500 g ai/ha
  Plant response rating (0 to 100 scale), Crabgrass, Large: 0
[3]; Preemergence, 125 g ai/ha
  Crabgrass, Large plant response rating (0 = no effect, 100 = complete control): 0
[3]; Preemergence, 500 g ai/ha
  Plant response rating (0 to 100 scale), Crabgrass, Large: 0
[4]; Postemergence, 125 g ai/ha
  Plant response rating (0 to 100 scale), Morningglory: 0
[4]; Postemergence, 500 g ai/ha
  Plant response rating (0 to 100 scale), Morningglory: 0
[4]; Preemergence, 125 g ai/ha
  Morningglory plant response rating (0 = no effect, 100 = complete control): 0
[4]; Preemergence, 500 g ai/ha
  Plant response rating (0 to 100 scale), Morningglory: 0
[5]; Postemergence, 125 g ai/ha
  Plant response rating (0 to 100 scale), Pigweed: 80
[5]; Postemergence, 500 g ai/ha
  Plant response rating (0 to 100 scale), Pigweed: 90
[5]; Preemergence, 125 g ai/ha
  Pigweed plant response rating (0 = no effect, 100 = complete control): 80
[5]; Preemergence, 500 g ai/ha
  Plant response rating (0 to 100 scale), Pigweed: 90
[6]; Postemergence, 125 g ai/ha
  Plant response rating (0 to 100 scale), Velvetleaf: 80
[6]; Postemergence, 500 g ai/ha
  Plant response rating (0 to 100 scale), Velvetleaf: 90
[6]; Preemergence, 125 g ai/ha
  Velvetleaf plant response rating (0 = no effect, 100 = complete control): 20
[6]; Preemergence, 500 g ai/ha
  Plant response rating (0 to 100 scale), Velvetleaf: 60
[7]; Postemergence, 125 g ai/ha
  Plant response rating (0 to 100 scale), Wheat: 0
[7]; Postemergence, 500 g ai/ha
  Plant response rating (0 to 100 scale), Wheat: 0
[7]; Preemergence, 125 g ai/ha
  Wheat plant response rating (0 = no effect, 100 = complete control): 0
[7]; Preemergence, 500 g ai/ha
  Plant response rating (0 to 100 scale), Wheat: 0
[8]; Postemergence, 62 g ai/ha
  Plant response rating (0 to 100), Ryegrass, Italian: 0
[8]; Postemergence, 125 g ai/ha
  Plant response rating (0 to 100), Ryegrass, Italian: 0
[8]; [11]
  Plant response rating, Ryegrass, Italian: 0
[8]; [12]
  Plant response rating, Ryegrass, Italian: 0
[8]; Preemergence, 62 g ai/ha
  Plant response rating, Ryegrass, Italian: 0
[8]; Preemergence, 125 g ai/ha
  Plant response rating, Ryegrass, Italian: 0
[8]; Preemergence, 250 g ai/ha
  Plant response rating, Ryegrass, Italian: 0
[8]; Preemergence, 500 g ai/ha
  Plant response rating, Ryegrass, Italian: 0
[9]; Postemergence, 62 g ai/ha
  Plant response rating (0 to 100), Foxtail, Giant: 0
[9]; Postemergence, 125 g ai/ha
  Plant response rating (0 to 100), Foxtail, Giant: 5
[9]; [11]
  Plant response rating, Foxtail, Giant: 0
[9]; [12]
  Plant response rating, Foxtail, Giant: 0
[9]; Preemergence, 62 g ai/ha
  Plant response rating, Foxtail, Giant: 0
[9]; Preemergence, 125 g ai/ha
  Plant response rating, Foxtail, Giant: 0
[9]; Preemergence, 250 g ai/ha
  Plant response rating, Foxtail, Giant: 10
[9]; Preemergence, 500 g ai/ha
  Plant response rating, Foxtail, Giant: 10
Soybean (Glycine max); Postemergence, 62 g ai/ha
  Plant response rating (0 to 100), Soybean: 0
Soybean (Glycine max); Postemergence, 125 g ai/ha
  Plant response rating (0 to 100), Soybean: 0
Soybean (Glycine max); [11]
  Plant response rating, Soybean: 5
Soybean (Glycine max); [12]
  Plant response rating, Soybean: 5
Soybean (Glycine max); Preemergence, 62 g ai/ha
  Plant response rating, Soybean: 0
Soybean (Glycine max); Preemergence, 125 g ai/ha
  Plant response rating, Soybean: 0
Soybean (Glycine max); Preemergence, 250 g ai/ha
  Plant response rating, Soybean: 0
Soybean (Glycine max); Preemergence, 500 g ai/ha
  Plant response rating, Soybean: 0
[10]; 62 g ai/ha
  Plant response rating (0 to 100), Chickweed: 95
[10]; 125 g ai/ha
  Plant response rating (0 to 100), Chickweed: 95
[10]; 250 g ai/ha
  Plant response rating, Chickweed: 100
[10]; 500 g ai/ha
  Plant response rating, Chickweed: 98
Kochia (Kochia scoparia); 62 g ai/ha
  Plant response rating (0 to 100), Kochia: 80
Kochia (Kochia scoparia); 125 g ai/ha
  Plant response rating (0 to 100), Kochia: 85
Kochia (Kochia scoparia); 250 g ai/ha
  Plant response rating, Kochia: 85
Kochia (Kochia scoparia); 500 g ai/ha
  Plant response rating, Kochia: 90
Wild oat (Avena fatua); 62 g ai/ha
  Plant response rating (0 to 100), Oat, Wild: 0
Wild oat (Avena fatua); 125 g ai/ha
  Plant response rating (0 to 100), Oat, Wild: 0
Wild oat (Avena fatua); 250 g ai/ha
  Plant response rating, Oat, Wild: 0
Wild oat (Avena fatua); 500 g ai/ha
  Plant response rating, Oat, Wild: 0
